From publication PMC3970981 (Nature chemical biology, 2013)
In brackets after ≈: the same amount, converted by molar mass.

How the values were obtained:
[1] = system: E. coli MG1655; experiment: microbe, parasite or virus in culture; settings: Escherichia coli, MG1655, 16 h, read-out: MIC (μg/ml) ^a / −bio
[2] = biological target: BioA (7,8-diaminopelargonic acid synthase) (Escherichia coli, UniProt P12995); experiment: recombinant BioA activity, bioA auxotroph feeding assay at […]; assay type: biochemical
Chain of BioA (7,8-diaminopelargonic acid synthase) (P12995 whole entry): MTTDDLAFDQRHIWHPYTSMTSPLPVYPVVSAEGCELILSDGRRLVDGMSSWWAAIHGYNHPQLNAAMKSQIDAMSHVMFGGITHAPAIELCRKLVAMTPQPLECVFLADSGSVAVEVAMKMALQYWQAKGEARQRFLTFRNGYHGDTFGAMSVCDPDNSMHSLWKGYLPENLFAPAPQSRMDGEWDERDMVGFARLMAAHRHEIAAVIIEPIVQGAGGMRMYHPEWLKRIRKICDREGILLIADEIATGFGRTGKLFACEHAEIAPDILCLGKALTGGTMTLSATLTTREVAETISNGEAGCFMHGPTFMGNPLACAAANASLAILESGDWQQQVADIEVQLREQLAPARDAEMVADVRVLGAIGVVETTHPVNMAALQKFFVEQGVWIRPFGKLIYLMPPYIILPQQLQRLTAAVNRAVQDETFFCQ

Compound | MIC [1] | also measured
CCCC(=O)NN [compound 21] | > 256 µg/mL | –
CC(=O)NN [compound 23] | 128 µg/mL (≈ 1730 µM) | –
NNC(=O)CSc1cccc([N+](=O)[O-])c1 [compound 5] | – | % Inhibition ^b / 10 μM / 100 [2]: 84
NNC(=O)CSc1ccc([N+](=O)[O-])cc1 [compound 6] | – | % Inhibition ^b / 1 μM / 100 [2]: 66
